Results published in PubChem BioAssay AID2060508 (Molecular Pharmacology Branch, DTP, NCI, 2025).
pIC50: −log10 of the molar value.

Each compound was assayed on 454973-116-R2-J3-PDC spheroids, viability, % test/control (assay: Anticancer human tumor 454973-116-R2-J3-PDC patient-derived pancreatic carcinoma cell line growth inhibition [GQUAD]). Details: curve of first compound; second compound 0.0316 µM; spheroids with HUVEC and MSC.
Outline: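 Tumor cells were grown as complex spheroids with HUVEC endothelial cells and mesenchymal stem cells as stroma. G-quadruplex stabilizers were combined with targeted agents over half-log dilutions from near the clinical Cmax, or from 10 microM.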
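Also: spheroids exposed to compounds for seven days.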

Row | SMILES | pIC50
1 | C=CC(=O)N1CCN(c2nc(=O)n(-c3c(C)ccnc3C(C)C)c3nc(-c4c(O)cccc4F)c(F)cc23)C(C)C1 (stereo unspecified) + Cc1[nH]c2ccc(F)cc2c1-c1nc2c3cccnc3c3ncccc3c2[nH]1 | < 5.00
2 | CCc1c2c(nc3ccc(O)cc13)-c1cc3c(c(=O)n1C2)COC(=O)[C@]3(O)CC + Cc1[nH]c2ccc(F)cc2c1-c1nc2c3cccnc3c3ncccc3c2[nH]1 | 8.82
3 | COc1cc(C2c3cc4c(cc3C(OC3OC5COC(C)OC5C(O)C3O)C3COC(=O)C23)OCO4)cc(OC)c1O (stereo unspecified) + Cc1[nH]c2ccc(F)cc2c1-c1nc2c3cccnc3c3ncccc3c2[nH]1 | 5.95
4 | COc1cccc2c1C(=O)c1c(O)c3c(c(O)c1C2=O)CC(O)(C(=O)CO)CC3OC1CC(N)C(O)C(C)O1 (stereo unspecified) + Cc1[nH]c2ccc(F)cc2c1-c1nc2c3cccnc3c3ncccc3c2[nH]1 | 6.78
5 | Cc1cccc(N(C)C(=O)C2C(O)CCN2c2nc(C)cc(C(F)(F)F)c2C#N)c1 (stereo unspecified) + Cc1[nH]c2ccc(F)cc2c1-c1nc2c3cccnc3c3ncccc3c2[nH]1 | < 5.00

Same assay, conditions: curve of first compound; second compound 0.1 µM; spheroids with HUVEC and MSC

Row | SMILES | pIC50
6 | C=CC(=O)N1CCN(c2nc(=O)n(-c3c(C)ccnc3C(C)C)c3nc(-c4c(O)cccc4F)c(F)cc23)C(C)C1 (stereo unspecified) + Cc1[nH]c2ccc(F)cc2c1-c1nc2c3cccnc3c3ncccc3c2[nH]1 | < 5.00
7 | CCc1c2c(nc3ccc(O)cc13)-c1cc3c(c(=O)n1C2)COC(=O)[C@]3(O)CC + Cc1[nH]c2ccc(F)cc2c1-c1nc2c3cccnc3c3ncccc3c2[nH]1 | 8.83
8 | COc1cc(C2c3cc4c(cc3C(OC3OC5COC(C)OC5C(O)C3O)C3COC(=O)C23)OCO4)cc(OC)c1O (stereo unspecified) + Cc1[nH]c2ccc(F)cc2c1-c1nc2c3cccnc3c3ncccc3c2[nH]1 | 5.89
9 | COc1cccc2c1C(=O)c1c(O)c3c(c(O)c1C2=O)CC(O)(C(=O)CO)CC3OC1CC(N)C(O)C(C)O1 (stereo unspecified) + Cc1[nH]c2ccc(F)cc2c1-c1nc2c3cccnc3c3ncccc3c2[nH]1 | 6.73
10 | Cc1cccc(N(C)C(=O)C2C(O)CCN2c2nc(C)cc(C(F)(F)F)c2C#N)c1 (stereo unspecified) + Cc1[nH]c2ccc(F)cc2c1-c1nc2c3cccnc3c3ncccc3c2[nH]1 | < 5.00

Same assay, conditions: curve of first compound; second compound 0.316 µM; spheroids with HUVEC and MSC

Row | SMILES | pIC50
11 | C=CC(=O)N1CCN(c2nc(=O)n(-c3c(C)ccnc3C(C)C)c3nc(-c4c(O)cccc4F)c(F)cc23)C(C)C1 (stereo unspecified) + Cc1[nH]c2ccc(F)cc2c1-c1nc2c3cccnc3c3ncccc3c2[nH]1 | < 5.00
12 | CCc1c2c(nc3ccc(O)cc13)-c1cc3c(c(=O)n1C2)COC(=O)[C@]3(O)CC + Cc1[nH]c2ccc(F)cc2c1-c1nc2c3cccnc3c3ncccc3c2[nH]1 | 8.78
13 | COc1cc(C2c3cc4c(cc3C(OC3OC5COC(C)OC5C(O)C3O)C3COC(=O)C23)OCO4)cc(OC)c1O (stereo unspecified) + Cc1[nH]c2ccc(F)cc2c1-c1nc2c3cccnc3c3ncccc3c2[nH]1 | 5.93
14 | COc1cccc2c1C(=O)c1c(O)c3c(c(O)c1C2=O)CC(O)(C(=O)CO)CC3OC1CC(N)C(O)C(C)O1 (stereo unspecified) + Cc1[nH]c2ccc(F)cc2c1-c1nc2c3cccnc3c3ncccc3c2[nH]1 | 6.81
15 | Cc1cccc(N(C)C(=O)C2C(O)CCN2c2nc(C)cc(C(F)(F)F)c2C#N)c1 (stereo unspecified) + Cc1[nH]c2ccc(F)cc2c1-c1nc2c3cccnc3c3ncccc3c2[nH]1 | < 5.00

Same assay, conditions: curve of first compound; second compound 1 µM; spheroids with HUVEC and MSC

Row | SMILES | pIC50
16 | C=CC(=O)N1CCN(c2nc(=O)n(-c3c(C)ccnc3C(C)C)c3nc(-c4c(O)cccc4F)c(F)cc23)C(C)C1 (stereo unspecified) + Cc1[nH]c2ccc(F)cc2c1-c1nc2c3cccnc3c3ncccc3c2[nH]1 | < 5.00
17 | CCc1c2c(nc3ccc(O)cc13)-c1cc3c(c(=O)n1C2)COC(=O)[C@]3(O)CC + Cc1[nH]c2ccc(F)cc2c1-c1nc2c3cccnc3c3ncccc3c2[nH]1 | 8.79
18 | COc1cc(C2c3cc4c(cc3C(OC3OC5COC(C)OC5C(O)C3O)C3COC(=O)C23)OCO4)cc(OC)c1O (stereo unspecified) + Cc1[nH]c2ccc(F)cc2c1-c1nc2c3cccnc3c3ncccc3c2[nH]1 | 5.95
19 | COc1cccc2c1C(=O)c1c(O)c3c(c(O)c1C2=O)CC(O)(C(=O)CO)CC3OC1CC(N)C(O)C(C)O1 (stereo unspecified) + Cc1[nH]c2ccc(F)cc2c1-c1nc2c3cccnc3c3ncccc3c2[nH]1 | 6.84
20 | Cc1cccc(N(C)C(=O)C2C(O)CCN2c2nc(C)cc(C(F)(F)F)c2C#N)c1 (stereo unspecified) + Cc1[nH]c2ccc(F)cc2c1-c1nc2c3cccnc3c3ncccc3c2[nH]1 | < 5.00

Same assay, conditions: curve of first compound; second compound 3.16 µM; spheroids with HUVEC and MSC

Row | SMILES | pIC50
21 | C=CC(=O)N1CCN(c2nc(=O)n(-c3c(C)ccnc3C(C)C)c3nc(-c4c(O)cccc4F)c(F)cc23)C(C)C1 (stereo unspecified) + Cc1[nH]c2ccc(F)cc2c1-c1nc2c3cccnc3c3ncccc3c2[nH]1 | < 5.00
22 | CCc1c2c(nc3ccc(O)cc13)-c1cc3c(c(=O)n1C2)COC(=O)[C@]3(O)CC + Cc1[nH]c2ccc(F)cc2c1-c1nc2c3cccnc3c3ncccc3c2[nH]1 | 8.87
23 | COc1cc(C2c3cc4c(cc3C(OC3OC5COC(C)OC5C(O)C3O)C3COC(=O)C23)OCO4)cc(OC)c1O (stereo unspecified) + Cc1[nH]c2ccc(F)cc2c1-c1nc2c3cccnc3c3ncccc3c2[nH]1 | 6.00
24 | COc1cccc2c1C(=O)c1c(O)c3c(c(O)c1C2=O)CC(O)(C(=O)CO)CC3OC1CC(N)C(O)C(C)O1 (stereo unspecified) + Cc1[nH]c2ccc(F)cc2c1-c1nc2c3cccnc3c3ncccc3c2[nH]1 | 6.84
25 | Cc1cccc(N(C)C(=O)C2C(O)CCN2c2nc(C)cc(C(F)(F)F)c2C#N)c1 (stereo unspecified) + Cc1[nH]c2ccc(F)cc2c1-c1nc2c3cccnc3c3ncccc3c2[nH]1 | < 5.00

Same assay, conditions: curve of first compound; second compound 10 µM; spheroids with HUVEC and MSC

Row | SMILES | pIC50
26 | C=CC(=O)N1CCN(c2nc(=O)n(-c3c(C)ccnc3C(C)C)c3nc(-c4c(O)cccc4F)c(F)cc23)C(C)C1 (stereo unspecified) + Cc1[nH]c2ccc(F)cc2c1-c1nc2c3cccnc3c3ncccc3c2[nH]1 | < 5.00
